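Step 1: Grow cells in 96-well plates. Step 2: Expose to compound for 48 hours at 5 concentrations. Step 3: Interpolate endpoints linearly; if unreached, use highest concentration. At the GI50, growth is halved. TGI marks complete inhibition of growth.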
Columns and labels:
Experiment in all cases: DTP human tumour cell line panel, 48 h
NCI-H23 lung = tested on: NCI-H23 lung
SF-268 CNS = tested on: SF-268 CNS
NCI-H460 lung = tested on: NCI-H460 lung
MCF7 breast = tested on: MCF7 breast
IGROV1 ovarian = tested on: IGROV1 ovarian
MALME-3M melanoma = tested on: MALME-3M melanoma
A498 renal = tested on: A498 renal
NCI-H226 lung = tested on: NCI-H226 lung
LOX IMVI melanoma = tested on: LOX IMVI melanoma
SR leukemia = tested on: SR leukemia
OVCAR-4 ovarian = tested on: OVCAR-4 ovarian
SF-295 CNS = tested on: SF-295 CNS
SNB-19 CNS = tested on: SNB-19 CNS
SN12C renal = tested on: SN12C renal
RXF 393 renal = tested on: RXF 393 renal
M14 melanoma = tested on: M14 melanoma
MDA-MB-231 breast = tested on: MDA-MB-231 breast
OVCAR-5 ovarian = tested on: OVCAR-5 ovarian
SF-539 CNS = tested on: SF-539 CNS
T-47D breast = tested on: T-47D breast
RPMI-8226 leukemia = tested on: RPMI-8226 leukemia
HS 578T breast = tested on: HS 578T breast
MDA-MB-435 = tested on: MDA-MB-435
SK-MEL-5 melanoma = tested on: SK-MEL-5 melanoma
OVCAR-8 ovarian = tested on: OVCAR-8 ovarian
HCT-116 colon = tested on: HCT-116 colon
UACC-257 melanoma = tested on: UACC-257 melanoma
HT29 colon = tested on: HT29 colon
HL-60(TB) leukemia = tested on: HL-60(TB) leukemia
NCI/ADR-RES ovarian = tested on: NCI/ADR-RES ovarian
SK-MEL-2 melanoma = tested on: SK-MEL-2 melanoma
SK-MEL-28 melanoma = tested on: SK-MEL-28 melanoma
CAKI-1 renal = tested on: CAKI-1 renal
SK-OV-3 ovarian = tested on: SK-OV-3 ovarian
DU-145 prostate = tested on: DU-145 prostate
SNB-75 CNS = tested on: SNB-75 CNS
CCRF-CEM leukemia = tested on: CCRF-CEM leukemia
OVCAR-3 ovarian = tested on: OVCAR-3 ovarian
TK-10 renal = tested on: TK-10 renal
BT-549 breast = tested on: BT-549 breast
HOP-62 NSCLC = tested on: HOP-62 NSCLC
HCC-2998 colon = tested on: HCC-2998 colon
PC-3 prostate = tested on: PC-3 prostate
HCT-15 colon = tested on: HCT-15 colon
A549 NSCLC = tested on: A549 NSCLC
ACHN renal = tested on: ACHN renal
MOLT-4 leukemia = tested on: MOLT-4 leukemia
KM12 colon = tested on: KM12 colon
UO-31 renal = tested on: UO-31 renal
K-562 leukemia = tested on: K-562 leukemia
COLO 205 colon = tested on: COLO 205 colon
U251 CNS = tested on: U251 CNS
786-0 renal = tested on: 786-0 renal
HOP-92 NSCLC = tested on: HOP-92 NSCLC
UACC-62 melanoma = tested on: UACC-62 melanoma
SW-620 colon = tested on: SW-620 colon
NCI-H522 lung = tested on: NCI-H522 lung
EKVX NSCLC = tested on: EKVX NSCLC

C/C(=N\NC(=S)N1CCCC1)c1ccccn1
GI50 (NCI-H23 lung): < 0.01 µM | TGI (NCI-H23 lung): 42.8 µM | GI50 (SF-268 CNS): 0.0261 µM | TGI (SF-268 CNS): 12.7 µM | GI50 (NCI-H460 lung): < 0.01 µM | TGI (NCI-H460 lung): 7.06 µM | GI50 (MCF7 breast): < 0.01 µM | TGI (MCF7 breast): 7.55 µM | GI50 (IGROV1 ovarian): < 0.01 µM | TGI (IGROV1 ovarian): 5.09 µM | GI50 (MALME-3M melanoma): < 0.0349 µM | TGI (MALME-3M melanoma): 1.64 µM | GI50 (A498 renal): 0.0798 µM | TGI (A498 renal): 2.37 µM | GI50 (NCI-H226 lung): < 0.01 µM | TGI (NCI-H226 lung): 2.85 µM | GI50 (LOX IMVI melanoma): < 0.01 µM | TGI (LOX IMVI melanoma): 11.1 µM | GI50 (SR leukemia): < 0.01 µM | TGI (SR leukemia): > 49.9 µM | GI50 (OVCAR-4 ovarian): < 0.01 µM | TGI (OVCAR-4 ovarian): 2.3 µM | GI50 (SF-295 CNS): < 0.01 µM | TGI (SF-295 CNS): 5.9 µM | GI50 (SNB-19 CNS): 0.112 µM | TGI (SNB-19 CNS): 14.7 µM | GI50 (SN12C renal): 0.0132 µM | TGI (SN12C renal): 11.8 µM | GI50 (RXF 393 renal): 0.188 µM | TGI (RXF 393 renal): 7.14 µM | GI50 (M14 melanoma): < 0.01 µM | TGI (M14 melanoma): 4.06 µM | GI50 (MDA-MB-231 breast): < 0.0348 µM | TGI (MDA-MB-231 breast): 16.2 µM | GI50 (OVCAR-5 ovarian): 0.0763 µM | TGI (OVCAR-5 ovarian): 14.8 µM | GI50 (SF-539 CNS): < 0.0265 µM | TGI (SF-539 CNS): 3.08 µM | GI50 (T-47D breast): < 0.01 µM | TGI (T-47D breast): 11 µM | GI50 (RPMI-8226 leukemia): < 0.01 µM | TGI (RPMI-8226 leukemia): 15.6 µM | GI50 (HS 578T breast): 0.198 µM | TGI (HS 578T breast): 20.5 µM | GI50 (MDA-MB-435): 0.0299 µM | TGI (MDA-MB-435): 21.8 µM | GI50 (SK-MEL-5 melanoma): 0.0348 µM | TGI (SK-MEL-5 melanoma): 0.42 µM | GI50 (OVCAR-8 ovarian): < 0.01 µM | TGI (OVCAR-8 ovarian): 12.4 µM | GI50 (HCT-116 colon): < 0.01 µM | TGI (HCT-116 colon): 12.1 µM | GI50 (UACC-257 melanoma): < 0.01 µM | TGI (UACC-257 melanoma): 0.166 µM | GI50 (HT29 colon): < 0.01 µM | TGI (HT29 colon): 17.8 µM | GI50 (HL-60(TB) leukemia): 0.01 µM | TGI (HL-60(TB) leukemia): 0.229 µM | GI50 (NCI/ADR-RES ovarian): < 0.01 µM | TGI (NCI/ADR-RES ovarian): 10.6 µM | GI50 (SK-MEL-2 melanoma): 0.242 µM | TGI (SK-MEL-2 melanoma): 14.4 µM | GI50 (SK-MEL-28 melanoma): 0.32 µM | TGI (SK-MEL-28 melanoma): 13.7 µM | GI50 (CAKI-1 renal): 0.0353 µM | TGI (CAKI-1 renal): 6.86 µM | GI50 (SK-OV-3 ovarian): 0.0232 µM | TGI (SK-OV-3 ovarian): 11.2 µM | GI50 (DU-145 prostate): 0.0428 µM | TGI (DU-145 prostate): 14.8 µM | GI50 (SNB-75 CNS): 0.273 µM | TGI (SNB-75 CNS): 13 µM | GI50 (CCRF-CEM leukemia): < 0.01 µM | TGI (CCRF-CEM leukemia): 23.1 µM | GI50 (OVCAR-3 ovarian): < 0.01 µM | TGI (OVCAR-3 ovarian): 12.1 µM | GI50 (TK-10 renal): 0.105 µM | TGI (TK-10 renal): 13.7 µM | GI50 (BT-549 breast): 0.018 µM | TGI (BT-549 breast): 14.9 µM | GI50 (HOP-62 NSCLC): < 0.01 µM | TGI (HOP-62 NSCLC): 13.8 µM | GI50 (HCC-2998 colon): 0.132 µM | TGI (HCC-2998 colon): 13.9 µM | GI50 (PC-3 prostate): < 0.01 µM | TGI (PC-3 prostate): 16.7 µM | GI50 (HCT-15 colon): < 0.01 µM | TGI (HCT-15 colon): 18.9 µM | GI50 (A549 NSCLC): < 0.01 µM | TGI (A549 NSCLC): 10.5 µM | GI50 (ACHN renal): < 0.01 µM | TGI (ACHN renal): 7.53 µM | GI50 (MOLT-4 leukemia): < 0.0115 µM | TGI (MOLT-4 leukemia): 11.6 µM | GI50 (KM12 colon): < 0.01 µM | TGI (KM12 colon): 15.2 µM | GI50 (UO-31 renal): < 0.011 µM | TGI (UO-31 renal): 3.18 µM | GI50 (K-562 leukemia): < 0.01 µM | TGI (K-562 leukemia): > 55.9 µM | GI50 (COLO 205 colon): < 0.01 µM | TGI (COLO 205 colon): 10.8 µM | GI50 (U251 CNS): < 0.01 µM | TGI (U251 CNS): 11.9 µM | GI50 (786-0 renal): 0.047 µM | TGI (786-0 renal): 11 µM | GI50 (HOP-92 NSCLC): 0.0508 µM | TGI (HOP-92 NSCLC): 7.98 µM | GI50 (UACC-62 melanoma): 0.09 µM | TGI (UACC-62 melanoma): 0.534 µM | GI50 (SW-620 colon): < 0.01 µM | TGI (SW-620 colon): 16.8 µM | GI50 (NCI-H522 lung): 0.171 µM | TGI (NCI-H522 lung): 6.09 µM

COC1OC(C)/C(=N/O)C2OC(C)(C)OC12 (stereo not given)
TGI (NCI-H23 lung): > 100 µM | TGI (SF-268 CNS): > 100 µM | TGI (NCI-H460 lung): > 100 µM | TGI (MCF7 breast): > 100 µM | TGI (IGROV1 ovarian): > 100 µM | TGI (MALME-3M melanoma): > 100 µM | TGI (A498 renal): > 100 µM | TGI (NCI-H226 lung): > 100 µM | TGI (LOX IMVI melanoma): > 100 µM | TGI (SR leukemia): > 100 µM | TGI (OVCAR-4 ovarian): > 100 µM | TGI (SF-295 CNS): > 100 µM | TGI (SNB-19 CNS): > 100 µM | TGI (SN12C renal): > 100 µM | TGI (RXF 393 renal): > 100 µM | TGI (M14 melanoma): > 100 µM | TGI (MDA-MB-231 breast): > 100 µM | TGI (OVCAR-5 ovarian): > 100 µM | TGI (SF-539 CNS): > 100 µM | TGI (T-47D breast): > 100 µM | TGI (RPMI-8226 leukemia): > 100 µM | TGI (HS 578T breast): > 100 µM | TGI (MDA-MB-435): > 100 µM | TGI (SK-MEL-5 melanoma): > 100 µM | TGI (OVCAR-8 ovarian): > 100 µM | TGI (HCT-116 colon): > 100 µM | TGI (UACC-257 melanoma): > 100 µM | TGI (HT29 colon): > 100 µM | TGI (HL-60(TB) leukemia): > 100 µM | TGI (NCI/ADR-RES ovarian): > 100 µM | TGI (SK-MEL-28 melanoma): > 100 µM | TGI (CAKI-1 renal): > 100 µM | TGI (SK-OV-3 ovarian): > 100 µM | TGI (DU-145 prostate): > 100 µM | TGI (CCRF-CEM leukemia): > 100 µM | TGI (OVCAR-3 ovarian): > 100 µM | TGI (TK-10 renal): > 100 µM | TGI (BT-549 breast): > 100 µM | TGI (HOP-62 NSCLC): > 100 µM | TGI (HCC-2998 colon): > 100 µM | TGI (PC-3 prostate): > 100 µM | TGI (EKVX NSCLC): > 100 µM | TGI (HCT-15 colon): > 100 µM | TGI (A549 NSCLC): > 100 µM | TGI (ACHN renal): > 100 µM | TGI (MOLT-4 leukemia): > 100 µM | TGI (KM12 colon): > 100 µM | TGI (UO-31 renal): > 100 µM | TGI (K-562 leukemia): > 100 µM | TGI (COLO 205 colon): > 100 µM | TGI (U251 CNS): > 100 µM | TGI (786-0 renal): > 100 µM | TGI (HOP-92 NSCLC): > 100 µM | TGI (UACC-62 melanoma): > 100 µM | TGI (SW-620 colon): > 100 µM | TGI (NCI-H522 lung): > 100 µM
